Literature values in patent US20240238439A1, “HER3-BINDING ANTIBODY-DRUG CONJUGATE” (Hummingbird Bioscience Pte. Ltd., priority 2023, published 2024).

Conditions: subset of EGFR-mutant and TKI-resistant lung cancers, and metastatic breast cancers; cited from earlier work

Question: With Patritumab-DXd as the substance, how does the clinical responses read?
Answer: The clinical responses was “clinical responses have been observed”.
